The record followed here is patent US10947242B2, “[1,2,4]triazolo[1,5and#8208;A]pyrimidine compounds as PDE2 inhibitors” (Janssen Pharmaceutica NV, priority 2016, dated 2021).

Broadly, the Emax is the maximal effect, on the per cent scale that the assay sets.

Molecules are shown by their SMILES. Where two headings read alike, the source gives them in different places.

Format in all cases: biochemical
Assay [1] concerns the target T1, Human recombinant PDE10A (hPDE10A) (Homo sapiens, UniProt Q9Y233).
T1 construct: His tag (inferred from metal chelate purification); made in house; host or cells: Sf9 insect cells (baculovirus)
In words: In vitro assay PDE10A, human clone (SPA, 3H-cAMP hydrolysis). On the procedure: Rat recombinant PDE10A (rPDE10A2) was expressed in Sf9 cells using a recombinant rPDE10A baculovirus construct. […] Tested compounds were dissolved and diluted in 100% DMSO to a concentration 100 fold of the final concentration in the assay. Human recombinant PDE10A ([…]) was expressed in Sf9 cells using a recombinant hPDE10A baculovirus that was made and amplified in house. […] Compound dilutions (0.4 μl) were added in 384 well plates to 20 μl of incubation buffer (50 mM Tris pH 7.8, 8.3 mM MgCl2, 1.7 mM EGTA). 10 μl of rPDE10A or hPDE10A enzyme in incubation buffer was added and the reaction was started by addition of 10 μl substrate to a final concentration of 60 nM cAMP and 0.008 μCi ^3H-cAMP. The reaction was incubated for 60 minutes at room temperature. […] After sedimentation of the beads during 30 minutes the radioactivity was measured in a Perkin Elmer Topcount scintillation counter and results were expressed as cpm. For blanc values the enzyme was omitted from the reaction and replaced by incubation buffer. Control values were obtained by addition of a final concentration of 1% DMSO instead of compound.

The target of assay [2] is T2, Human recombinant PDE3A (hPDE3A) (Homo sapiens, UniProt Q14432).
T2 construct: purchased Scottish Biomedical; host or cells: Sf9 insect cells
T2 sequence (Q14432 whole entry): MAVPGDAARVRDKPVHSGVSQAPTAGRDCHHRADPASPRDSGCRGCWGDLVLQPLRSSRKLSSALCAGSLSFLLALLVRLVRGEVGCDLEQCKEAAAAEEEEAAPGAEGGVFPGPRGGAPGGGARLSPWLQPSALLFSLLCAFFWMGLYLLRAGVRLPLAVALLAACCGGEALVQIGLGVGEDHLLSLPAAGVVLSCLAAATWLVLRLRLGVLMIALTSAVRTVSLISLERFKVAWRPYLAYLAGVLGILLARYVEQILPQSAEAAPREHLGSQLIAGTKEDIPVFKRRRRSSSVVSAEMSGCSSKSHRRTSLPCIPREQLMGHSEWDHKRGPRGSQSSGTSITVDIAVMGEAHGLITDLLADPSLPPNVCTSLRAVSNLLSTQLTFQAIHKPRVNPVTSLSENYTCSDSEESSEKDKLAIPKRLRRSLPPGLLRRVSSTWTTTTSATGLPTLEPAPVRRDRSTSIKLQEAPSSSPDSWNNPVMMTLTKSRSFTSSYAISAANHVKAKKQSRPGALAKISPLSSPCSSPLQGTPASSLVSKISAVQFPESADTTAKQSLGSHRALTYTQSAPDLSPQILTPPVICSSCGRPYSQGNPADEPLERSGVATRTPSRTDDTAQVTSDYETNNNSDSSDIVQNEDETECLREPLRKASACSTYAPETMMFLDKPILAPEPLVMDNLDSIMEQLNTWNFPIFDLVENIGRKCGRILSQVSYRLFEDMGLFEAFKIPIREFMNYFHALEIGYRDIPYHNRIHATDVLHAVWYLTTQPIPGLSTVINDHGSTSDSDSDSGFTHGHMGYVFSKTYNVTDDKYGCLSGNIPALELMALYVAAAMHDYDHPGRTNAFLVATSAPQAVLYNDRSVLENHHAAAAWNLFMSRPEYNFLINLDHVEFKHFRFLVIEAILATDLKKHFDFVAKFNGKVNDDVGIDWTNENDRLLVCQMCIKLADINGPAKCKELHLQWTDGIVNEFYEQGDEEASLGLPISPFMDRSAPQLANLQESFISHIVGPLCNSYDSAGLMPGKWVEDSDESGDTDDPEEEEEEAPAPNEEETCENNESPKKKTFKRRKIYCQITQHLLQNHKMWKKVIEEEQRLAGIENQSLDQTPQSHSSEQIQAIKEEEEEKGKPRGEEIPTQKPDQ
Briefly: In vitro assay PDE3A (SPA, 3H-cAMP hydrolysis).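 For all read-outs here: the method names PDE3A and the table heading PDE3B.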 The following applies: for IC50: hPDE3B pIC50, read-out: pIC50 (converted); for Emax: read-out: hPDE3B Emax, read-out: Emax. As to the method:
Human recombinant PDE3A (hPDE3A) was supplied as a partially purified insect cell lysate by Scottish Biomedical, it was cloned from human brain and expressed in Sf9 cells. Tested compounds were dissolved and diluted in 100% DMSO to a concentration 100 fold of the final concentration in the assay. Compound dilutions (0.4 μl) were added in 384 well plates to 20 μl of incubation buffer (50 mM Tris pH 7.8, 8.3 mM MgCl2, 1.7 mM EGTA). 10 μl of hPDE3A enzyme in incubation buffer was added and the reaction was started by addition of 10 μl substrate to a final concentration of 0.4 μM cAMP and 2.4 μCi/ml [^3H]-cAMP. The reaction was incubated for 60 min at room temperature. […] After sedimentation of the beads during 30 min the radioactivity was measured in a Perkin Elmer Topcount scintillation counter and results were expressed as cpm. For blanc values the enzyme was omitted from the reaction and replaced by incubation buffer. Control values were obtained by addition of a final concentration of 1% DMSO instead of compound.

The target in assay [3] is T3, Human recombinant PDE2A (hPDE2A) (Homo sapiens, UniProt O00408).
T3 construct: His tag (inferred from metal chelate purification); made in house; host or cells: Sf9 insect cells (baculovirus)
T3 sequence (O00408 whole entry): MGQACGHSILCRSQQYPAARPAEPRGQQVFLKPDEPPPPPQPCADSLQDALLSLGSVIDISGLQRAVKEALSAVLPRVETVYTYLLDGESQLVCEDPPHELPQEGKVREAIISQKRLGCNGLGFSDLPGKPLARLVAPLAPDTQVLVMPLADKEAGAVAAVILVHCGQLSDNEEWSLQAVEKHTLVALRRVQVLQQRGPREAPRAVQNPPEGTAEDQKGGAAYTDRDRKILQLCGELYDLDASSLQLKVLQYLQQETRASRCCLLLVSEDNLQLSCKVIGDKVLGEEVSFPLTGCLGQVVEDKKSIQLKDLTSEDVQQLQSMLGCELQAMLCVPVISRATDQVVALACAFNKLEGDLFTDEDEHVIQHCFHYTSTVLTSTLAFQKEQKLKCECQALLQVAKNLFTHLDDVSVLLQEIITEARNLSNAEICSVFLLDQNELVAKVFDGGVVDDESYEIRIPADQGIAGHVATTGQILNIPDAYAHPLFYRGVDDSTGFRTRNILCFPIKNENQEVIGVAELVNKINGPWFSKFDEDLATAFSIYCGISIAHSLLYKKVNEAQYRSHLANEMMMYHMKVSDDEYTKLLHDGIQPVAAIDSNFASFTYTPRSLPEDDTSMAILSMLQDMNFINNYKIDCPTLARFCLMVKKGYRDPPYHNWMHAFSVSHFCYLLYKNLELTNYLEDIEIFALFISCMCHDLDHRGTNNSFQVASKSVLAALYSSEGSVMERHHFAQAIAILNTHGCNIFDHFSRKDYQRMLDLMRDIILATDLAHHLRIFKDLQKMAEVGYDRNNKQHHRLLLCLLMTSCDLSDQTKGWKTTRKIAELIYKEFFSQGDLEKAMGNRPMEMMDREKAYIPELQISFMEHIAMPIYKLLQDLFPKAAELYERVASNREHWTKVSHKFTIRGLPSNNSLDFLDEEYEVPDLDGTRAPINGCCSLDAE
Briefly: In vitro assay PDE2A (SPA, 3H-cGMP hydrolysis). The following applies: for Emax: read-out: hPDE2A Emax; for IC50: read-out: hPDE2A pIC50 (converted).

Setting [4] is: human clone by default (no (r) mark), read-out: hPDE10A2 or rPDE10A2 Emax.
[5] abbreviates: human clone by default (no (r) mark), read-out: hPDE10A2 or rPDE10A2 pIC50 (converted).
Where [6] appears, read: human clone (h), default, read-out: hPDE10A2 Emax.
Setting [7] is: human clone (h), default, read-out: hPDE10A2 pIC50 (converted).
Setting [8] is: human recombinant PDE2A, 10 μM cGMP substrate.

T1 sequence (Q9Y233 267-1055): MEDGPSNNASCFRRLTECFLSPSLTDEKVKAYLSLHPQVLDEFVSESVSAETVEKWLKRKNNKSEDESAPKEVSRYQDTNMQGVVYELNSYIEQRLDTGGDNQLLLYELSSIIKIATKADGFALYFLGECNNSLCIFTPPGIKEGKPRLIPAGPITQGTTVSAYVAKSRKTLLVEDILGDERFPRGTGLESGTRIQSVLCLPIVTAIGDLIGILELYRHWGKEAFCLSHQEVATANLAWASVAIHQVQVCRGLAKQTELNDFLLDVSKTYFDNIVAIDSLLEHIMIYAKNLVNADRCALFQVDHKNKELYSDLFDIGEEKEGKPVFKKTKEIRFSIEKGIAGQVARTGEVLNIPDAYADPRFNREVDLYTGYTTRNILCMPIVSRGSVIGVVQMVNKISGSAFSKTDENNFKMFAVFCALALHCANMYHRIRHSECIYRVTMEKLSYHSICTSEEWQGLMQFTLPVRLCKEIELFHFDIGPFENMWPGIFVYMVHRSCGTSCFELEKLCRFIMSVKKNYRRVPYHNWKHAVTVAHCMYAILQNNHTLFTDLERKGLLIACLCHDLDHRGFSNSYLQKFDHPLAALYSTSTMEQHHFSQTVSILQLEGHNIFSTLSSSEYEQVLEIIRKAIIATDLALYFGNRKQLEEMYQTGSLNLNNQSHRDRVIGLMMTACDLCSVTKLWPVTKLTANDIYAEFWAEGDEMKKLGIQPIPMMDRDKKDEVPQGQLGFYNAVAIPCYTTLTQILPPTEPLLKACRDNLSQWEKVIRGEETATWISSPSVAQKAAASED

As to `CN1CCOc2cc(C(=O)N3[C@H]4CC[C@H](c5cc(C(F)F)nc6ncnn56)[C@@H]3CC4)ccc21` [Compound 378], the figures for the Emax in assay [1] (setting [4]), in assay [2] and in assay [3] were 97%, 96% and 99%, respectively. Also, the IC50 in assay [1] (setting [5]) was 407 nM; in assay [2], 759 nM; in assay [3] it was 1.7 nM.

`C[C@@H]1CCN(C(=O)c2ccc(C(C)(C)C)o2)C[C@H]1c1cc(C(F)F)nc2ncnn12` [Compound 136]: the Emax in assay [1] (setting [6]) stood at 97%; in assay [2] it was 51%; in assay [3] (human recombinant PDE2A) it was 101%; in assay [3], 101%. Also, the IC50 in assay [1] (setting [7]) was 288 nM; in assay [2] it was above 10000 nM; in assay [3] (setting [8]), 3.39 nM; in assay [3], 3.39 nM.

As to `O=C(c1ccc2occc2c1)N1CCC[C@](F)(c2cc(C(F)F)nc3ncnn23)C1` (single isomer, unassigned) [Compound 138], the Emax in assay [1] (setting [6]) amounted to 24%; in assay [2] it was 64%; in assay [3], 93%. For the same molecule, the figures for the IC50 in assay [1] (setting [7]), in assay [2] and in assay [3] were above 10000 nM, 4900 nM and 28.2 nM, respectively.

In the case of `C[C@@H]1CCN(C(=O)c2cnc3n2CCCC3)C[C@H]1c1cc(C(F)F)nc2ncnn12` [Compound 179], the maximum response (Emax) in assay [1] (setting [6]) was 90%; in assay [2] it was 32%; in assay [3] (human recombinant PDE2A) it was 100%; in assay [3], 100%. The IC50 in assay [1] (setting [7]) was 537 nM; in assay [2] it was above 10000 nM; in assay [3] (setting [8]) it was 21.4 nM; in assay [3] it was 21.4 nM.

Turning to `C[C@@H]1CCN(C(=O)c2ncc[nH]2)C[C@H]1c1cc(C(F)F)nc2ncnn12` [Compound 240], the Emax in assay [1] (setting [6]) worked out at 51%; in assay [1] (setting [4]), 51%; in assay [2] it was 9%; in assay [3] (human recombinant PDE2A), 90%; in assay [3] it was 90%. Moreover, the IC50 is 9120 nM in assay [1] (setting [7]); 9120 nM in assay [1] (setting [5]); above 10000 nM in assay [2]; 1550 nM in assay [3] (setting [8]); 1550 nM in assay [3].

Consider `COc1ccc(C(C)(C)C)cc1C(=O)N1CC[C@@H](C)[C@H](c2cc(C(F)F)nc3ncnn23)C1` [Compound 165], for which the Emax in assay [1] (setting [6]) was determined as 78%; in assay [2], 36%; in assay [3] (human recombinant PDE2A), 100%; in assay [3], 100%. The IC50 was 3470 nM in assay [1] (setting [7]), above 10000 nM in assay [2], 93.3 nM in assay [3] (setting [8]) and 93.3 nM in assay [3].

In the case of `Cc1c(C(=O)N2CC[C@@H](C)[C@H](c3cc(C(F)F)nc4ncnn34)C2)ccnc1Cl` [Compound 159], the Emax in assay [1] (setting [6]) is 75%; in assay [2] it was 42%; in assay [3] (human recombinant PDE2A), 100%; in assay [3] it was 100%. For the same molecule, the IC50 in assay [1] (setting [7]) is 3240 nM; in assay [2], above 10000 nM; in assay [3] (setting [8]) it was 72.4 nM; in assay [3] it was 72.4 nM.

Regarding `Cc1cc(C(=O)N2CC[C@@H](C)[C@H](c3cc(C(F)F)nc4ncnn34)C2)no1` [Compound 157], the maximal effect (Emax) in assay [1] (setting [6]) turned out to be 75%; in assay [2], 33%; in assay [3] (human recombinant PDE2A), 99%; in assay [3], 99%. The IC50 in assay [1] (setting [7]) was 2570 nM; in assay [2], above 10000 nM; in assay [3] (setting [8]), 60.3 nM; in assay [3] it was 60.3 nM.

Consider `Cc1cnoc1C(=O)N1CC[C@@H](C)[C@H](c2cc(C(F)F)nc3ncnn23)C1` [Compound 160], for which the Emax worked out at 88% in assay [1] (setting [6]), 34% in assay [2], 99% in assay [3] (human recombinant PDE2A) and 99% in assay [3]. Further, the IC50 in assay [1] (setting [7]) was 1020 nM; in assay [2], above 10000 nM; in assay [3] (setting [8]), 72.4 nM; in assay [3], 72.4 nM.

As for `C[C@@H]1CCN(C(=O)c2ccno2)C[C@H]1c1cc(C(F)F)nc2ncnn12` [Compound 243], the Emax came to 70% in assay [1] (setting [6]); 70% in assay [1] (setting [4]); 13% in assay [2]; 99% in assay [3] (human recombinant PDE2A); 99% in assay [3]. Further, the IC50 in assay [1] (setting [7]) is 3630 nM; in assay [1] (setting [5]), 3630 nM; in assay [2] it was above 10000 nM; in assay [3] (setting [8]), 132 nM; in assay [3], 132 nM.

As for `Cc1cc([C@@H]2CN(C(=O)c3cnc(Cl)c(Cl)c3)CC[C@H]2C)n2ncnc2n1` [Compound 17], the Emax was 97% in assay [1] (setting [6]), 74% in assay [2], 99% in assay [3] (human recombinant PDE2A) and 99% in assay [3]. Also, the IC50 is 81.3 nM in assay [1] (setting [7]), 4270 nM in assay [2], 4.9 nM in assay [3] (setting [8]) and 4.9 nM in assay [3].

Turning to `C[C@@H]1CCN(C(=O)c2cccnc2F)C[C@H]1c1cc(C(F)F)nc2ncnn12` [Compound 262], the Emax in assay [1] (setting [6]) came to 74%; in assay [1] (setting [4]), 74%; in assay [2], 37%; in assay [3] it was 101%. Further, the IC50 in assay [1] (setting [7]) was 3240 nM; in assay [1] (setting [5]), 3240 nM; in assay [2], above 10000 nM; in assay [3], 155 nM.

Turning to `C[C@@H]1CCN(C(=O)c2ccncc2Cl)C[C@H]1c1cc(C(F)F)nc2ncnn12` [Compound 235], the Emax is 67% in assay [1] (setting [6]); 67% in assay [1] (setting [4]); 32% in assay [2]; 98% in assay [3] (human recombinant PDE2A); 98% in assay [3]. Moreover, the IC50 was 5500 nM in assay [1] (setting [7]); 5500 nM in assay [1] (setting [5]); above 10000 nM in assay [2]; 123 nM in assay [3] (setting [8]); 123 nM in assay [3].

With `C[C@@H]1CCN(C(=O)c2ccc(N)nc2)C[C@H]1c1cc(C(F)F)nc2ncnn12` [Compound 181], the Emax in assay [1] (setting [6]) was determined as 94%; in assay [2], 52%; in assay [3] (human recombinant PDE2A), 98%; in assay [3], 98%. The IC50 in assay [1] (setting [7]) was 309 nM; in assay [2], above 10000 nM; in assay [3] (setting [8]), 4.57 nM; in assay [3], 4.57 nM.

As to `Cn1ccc2cc(C(=O)N3[C@H]4CC[C@H](c5cc(C(F)F)nc6ncnn56)[C@@H]3CC4)ncc21` [Compound 382], the values for the Emax in assay [1] (setting [4]), in assay [2] and in assay [3] were 75%, 37% and 99%, respectively. The results for the IC50 in assay [1] (setting [5]), in assay [2] and in assay [3] were 3980 nM, above 10000 nM and 10.2 nM, respectively.

Consider `C[C@@H]1CCN(C(=O)c2ccc(F)nc2)C[C@H]1c1cc(C(F)F)nc2ncnn12` [Compound 254], for which the Emax in assay [1] (setting [6]) was determined as 70%; in assay [1] (setting [4]), 70%; in assay [2] it was 25%; in assay [3], 99%. Also, the IC50 in assay [1] (setting [7]) was 3800 nM; in assay [1] (setting [5]), 3800 nM; in assay [2], above 10000 nM; in assay [3] it was 107 nM.

With `C[C@@H]1CCN(C(=O)c2cnccn2)C[C@H]1c1cc(C(F)F)nc2ncnn12` [Compound 257], the Emax in assay [1] (setting [6]) turned out to be 45%; in assay [1] (setting [4]) it was 45%; in assay [2], 15%; in assay [3] it was 95%. For the same molecule, the IC50 in assay [1] (setting [7]) is above 10000 nM; in assay [1] (setting [5]), above 10000 nM; in assay [2] it was above 10000 nM; in assay [3] it was 263 nM.

`C[C@]1(c2cc(C(F)F)nc3ncnn23)CCCN(C(=O)c2ccc3nccn3c2)C1` (single isomer, unassigned) [Compound 212]: the Emax in assay [1] (setting [6]) was 8%; in assay [2] it was 7%; in assay [3] (human recombinant PDE2A), 61%; in assay [3], 61%. The IC50 was above 10000 nM in assay [1] (setting [7]), above 10000 nM in assay [2], 575 nM in assay [3] (setting [8]) and 575 nM in assay [3].
